Assay results published in US8697123B2, “Medication on the basis of 3,3′-diindolylmethane (DIM) with high-bioavailability and its use in treatment of human hyperplastic and inflammatory diseases” (Zakrytoye akstionernoye obschestvo “VELES FARMA”, priority 2010, dated 2014).

Key:
[1] = parameters: species or system rats; conditions: rat, in vivo, 200 mg/kg
Method: Concentration of 3,3′-diindolylmethane (μg/ml) in the Blood Plasma of Experimental Animals Given 200.0 mg/kg of 3,3′-diindolylmethane Substance Intrastomachically.
The results of measurements of 3,3′-diindolylmethane substance concentration in the blood plasma of rats given the substance intrastomachically are shown in Table 1.
3,3′-diindolylmethane Concentration (μg/ml) in the Blood Plasma of Experimental Animals Given […] of High-Bioavailability 3,3′-diindolylmethane Intrastomachically.
The results of measurements of 3,3′-diindolylmethane substance concentration in the blood plasma of rats given the substance intrastomachically are shown in Table 2.

[2] = Clinical efficiency of DIM-HB and crystalline DIM in equal doses; assay type: in vivo, human
Source text: All classical studies compared the efficiencies of DIM-HB and crystalline DIM in equal doses.
These differences are probably attributed to effective therapeutic DIM concentrations reached in the peripheral blood and target tissues in response to DIM-HB treatment.

[3] = DIM concentration in patients' blood plasma; assay type: in vivo, human; conditions: dose 100 mg
Source text: Study of DIM Concentration in Patients' Blood Plasma These differences are probably attributed to effective therapeutic DIM concentrations reached in the peripheral blood and target tissues in response to DIM-HB treatment.

maximum concentration in the system blood flow [1]: 0.13 to 0.17 µg/mL
minimum concentration 12 hours after administration [1]: less than 0.03 μg/ml
time at which the maximum concentration was observed [1]: about 1 hour
DIM concentration in the plasma [3]: 20 to 30 ng/mL
SMILES: c1ccc2c(Cc3c[nH]c4ccccc34)c[nH]c2c1 [Crystalline DIM, 3,3′-diindolylmethane]
dynamics in all study groups of patients in response to treatment [2]: no dynamics at all
